Results published in patent US6432426B1, “Non-staining topical iodine composition and method” (Symbollon Corporation, priority 1998, dated 2002).

Columns and labels:
Human Skin [1] = experiment: Coloration of human skin by a 30 second exposure (vial contact on forearm); hue by Pantone chips, intensity against Brown No. 3 dye; type: in vivo; design: key to Coloration of human skin: N = no visible staining; L = light staining barely noticeable; S = a clearly visible coloration; details: for Coloration of human skin: 30 second exposure, lines = Subjects 1-3
Excerpt: 1. […] Elemental iodine was weighed on an analytical balance and dissolved in one liter of water that had been acidified with 2 drops of 0.1N hydrochloric acid. The concentration of molecular iodine in the water was confirmed by potentiometric analysis (Gottardi, W., 1983. Fresenius Z. Anal. Chem., Vol. 314, pages 582-585). Samples were also titrated with thiosulfate to determine that at least 95% of the theoretical yield of titratable iodine was in the form of molecular iodine as opposed to triiodide. The concentration of molecular iodine was varied from 25 ppm to 330 ppm.
One dram vials (Kimble catalog #60931) were used to deliver 4 mL of the room temperature iodine solutions samples. The vials were placed on the forearm of a subject and then the forearm was inverted to initiate contact of the sample with the iodine solution. The contact area was a circle with a diameter of 1.3 cm. The samples were held on the arm for 30 seconds at room temperature. Three different subjects were used for this experiment. Immediately after the 30 second contact time the arms of the subjects were examined for stains; 10 minutes after the end of the contact time all subjects arms were examined for stains again..
For the purposes of this application, two different parameters were used to characterize the color and intensity of the term stain. The hue of the color imparted to skin was characterized by using the Pantone Color Matching System (Pantone Color Specifier, Pantone Inc., Carlstadt, N.J.) which allows comparison with 1,012 defined colors on two types of paper. Stains from triiodide were matched to the Pantone color chip No. 152C. Short-lived coloration from molecular iodine were matched to the Pantone color chip 1375C.
The intensity of any coloration on skin was characterized by applying an aqueous solution of known concentrations of a food dye, Brown No. 3 (Crompton & Knowles, Mahwah, N.J. —Code DP935159), for 10 seconds using the method described above for application of iodine. Brown No. 3 was applied to the skin at concentrations that ranged from 500 ppm to 30 ppm and the intensity of the color from Brown No. 3 was compared to the intensity of coloration from iodine compositions. For instance, the intensity of color 10 minutes after a 30 second contact with a 600 ppm aqueous triiodide solution was equivalent to the color from a 10 second exposure to a 250 ppm Brown No. 3 solution. In contrast, the intensity of color 10 minutes after a 30 second contact with a 300 ppm aqueous molecular iodine solution was equivalent to the color from a ten second exposure to a 30 ppm Brown No. 3 solution which is barely discernible.

Human Skin [2] = experiment: Diffusion of iodine from skin post application (DPD absorbance at 553 nm); type: in vivo; details: average of three subjects
Method: 2. Three samples from Example 1 were used to confirm that molecular iodine will penetrate into skin and remain in the skin for a prolonged time period.
Application of the iodine solution onto skin was performed as described in Example 1 above with the exception that the contacted area was flushed with water for 15 seconds immediately after following contact between the iodine solution and skin. The method of Goftardi (J. Hosp. Infect., 1995, Vol 29, pages 9-18) were used to measure the amount of molecular iodine coming out of the skin. Briefly, 1 mL of a diethyl-p-phenylenediamine (DPD) solution was placed concentrically onto the exposed area of skin and left there for 30 seconds. This solution was then transferred to a 1 cm cuvette and the absorbance was read at 553 nm. Control values were obtained by contacting the DPD solution to an unexposed area on the forearm of each subject. Control values were subtracted from the experimental measurements. Iodine solutions containing 50 ppm, 150 ppm and 300 ppm of molecular iodine were used for this example. Two measurements were made (one measurement of each forearm) at each iodine concentration on all three subjects.

[3] = Concentration of molecular iodine in a saturated solution; type: physicochemical; details: pH of 4.5
Method: 5. […] A saturated solution of molecular iodine was prepared at a pH of 4.5. The concentration of molecular iodine was measured to be 320 ppm and the concentration of triiodide was determined to be less than 5 ppm. A 1.0 dram vial containing four mL of the saturated iodine solution was contacted with the forearm of a subject and then the forearm was inverted to initiate contact of the sample with the molecular iodine solution. The samples were contacted with the arm for 30 seconds. After contact the treated arm was flushed with water for 15 seconds and dried.

Pseudomonas aeruginosa = experiment: Residual biocidal effect of skin associated iodine, repeated experiment; type: in vivo; details: saturated molecular iodine solution (320 ppm)
Streptococcus agalactica = experiment: as above; type: in vivo; details: saturated molecular iodine solution (320 ppm)

In the case of II [Molecular Iodine, molecular iodine], the “Coloration of human skin” value (Human Skin [1]; 25 ppm molecular iodine, 0 min post contact) is reported as “N”, the “Coloration of human skin” value (Human Skin [1]; 25 ppm molecular iodine, 10 min post contact) is reported as “N” and the “Coloration of human skin” value (Human Skin [1]; 50 ppm molecular iodine, 0 min post contact) is reported as “N”. For the same compound, the “Coloration of human skin” value (Human Skin [1]; 50 ppm molecular iodine, 10 min post contact) was “N”, the “Coloration of human skin” value (Human Skin [1]; 100 ppm molecular iodine, 0 min post contact) was “N and L” and the “Coloration of human skin” value (Human Skin [1]; 100 ppm molecular iodine, 10 min post contact) was “N”. For the same compound, the “Coloration of human skin” value (Human Skin [1]; 200 ppm molecular iodine, 0 min post contact) was “S”, the “Coloration of human skin” value (Human Skin [1]; 200 ppm molecular iodine, 10 min post contact) was “N” and the “Coloration of human skin” value (Human Skin [1]; 300 ppm molecular iodine, 0 min post contact) was “S”. The “Coloration of human skin” value (Human Skin [1]; 300 ppm molecular iodine, 10 min post contact) was “N and L”, the “Intensity of color on skin, equivalent Brown No. 3 solution (ten second exposure)” value (Human Skin [1]; 10 minutes after a 30 second contact with a 300 ppm aqueous molecular iodine solution, barely discernible) was 30 ppm and the “Hue of the color imparted to skin, matched Pantone color chip” value (Human Skin [1]; Pantone Color Matching System) was 1375C. For the same compound, the “Mean absorbance (DPD, 553 nm), iodine diffusing from skin” value (shortened to “Mean absorbance (DPD, 553 nm)”) (Human Skin [2]; 50 ppm I2, 3 minutes after application) was 0.06, the “Mean absorbance (DPD, 553 nm)” value (Human Skin [2]; 50 ppm I2, 6 minutes after application) was 0.17 and the “Mean absorbance (DPD, 553 nm)” value (Human Skin [2]; 50 ppm I2, 20 minutes after application) was 0.19. The “Mean absorbance (DPD, 553 nm)” value (Human Skin [2]; 50 ppm I2, 60 minutes after application) was 0.18, the “Mean absorbance (DPD, 553 nm)” value (Human Skin [2]; 50 ppm I2, 90 minutes after application) was 0.13 and the “Mean absorbance (DPD, 553 nm)” value (Human Skin [2]; 50 ppm I2, 120 minutes after application) was 0.08. The “Mean absorbance (DPD, 553 nm)” value (Human Skin [2]; 50 ppm I2, 240 minutes after application) was 0.06, the “Mean absorbance (DPD, 553 nm)” value (Human Skin [2]; 50 ppm I2, 660 minutes after application) was 0.02 and the “Mean absorbance (DPD, 553 nm)” value (Human Skin [2]; 150 ppm I2, 3 minutes after application) was 0.32. The “Mean absorbance (DPD, 553 nm)” value (Human Skin [2]; 150 ppm I2, 6 minutes after application) was 0.31, the “Mean absorbance (DPD, 553 nm)” value (Human Skin [2]; 150 ppm I2, 20 minutes after application) was 0.48 and the “Mean absorbance (DPD, 553 nm)” value (Human Skin [2]; 150 ppm I2, 60 minutes after application) was 0.53. The “Mean absorbance (DPD, 553 nm)” value (Human Skin [2]; 150 ppm I2, 90 minutes after application) was 0.50, the “Mean absorbance (DPD, 553 nm)” value (Human Skin [2]; 150 ppm I2, 120 minutes after application) was 0.46 and the “Mean absorbance (DPD, 553 nm)” value (Human Skin [2]; 150 ppm I2, 240 minutes after application) was 0.36. For the same compound, the “Mean absorbance (DPD, 553 nm)” value (Human Skin [2]; 150 ppm I2, 660 minutes after application) was 0.20, the “Mean absorbance (DPD, 553 nm)” value (Human Skin [2]; 300 ppm I2, 3 minutes after application) was 0.78 and the “Mean absorbance (DPD, 553 nm)” value (Human Skin [2]; 300 ppm I2, 6 minutes after application) was 0.65. For the same compound, the “Mean absorbance (DPD, 553 nm)” value (Human Skin [2]; 300 ppm I2, 20 minutes after application) was 1.11, the “Mean absorbance (DPD, 553 nm)” value (Human Skin [2]; 300 ppm I2, 60 minutes after application) was 0.93 and the “Mean absorbance (DPD, 553 nm)” value (Human Skin [2]; 300 ppm I2, 90 minutes after application) was 0.77. For the same compound, the “Mean absorbance (DPD, 553 nm)” value (Human Skin [2]; 300 ppm I2, 120 minutes after application) was 0.64, the “Mean absorbance (DPD, 553 nm)” value (Human Skin [2]; 300 ppm I2, 240 minutes after application) was 0.57 and the “Mean absorbance (DPD, 553 nm)” value (Human Skin [2]; 300 ppm I2, 660 minutes after application) was 0.40. For the same compound, the “Concentration of molecular iodine in saturated solution” value [3] was 320 ppm, the “Log reduction (smallest observed)” value (Pseudomonas aeruginosa) was 0.5 logs and the “Residual biocidal efficacy on skin” value (Streptococcus agalactica) was “Efficacy was also demonstrated”.
